Measurements as given in PubChem BioAssay AID248 (DTP/NCI, 2004).
Inconclusive results and toxic doses are left out. Rule as the data show it: active = T/C of 150% or more; inactive = T/C below 125%.

Test system: L1210 leukemia ip in BDF1 mice, survival T/C
Experiment: NCI In Vivo Anticancer Drug Screen. Data for tumor model L1210 Leukemia (intraperitoneal) in B6D2F1 (BDF1) mice
Conditions: endpoint: mean survival time, higher = longer survival
How it was run: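 Transplantable tumor model; survival measured in treated vs vehicle control mice. Value = treated/control.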

[1] = dose: 25.0 mg/kg/injection, schedule: Q01DX009 (ip), vehicle: Klucel (hydroxypropylcellulose) (HPC)
[2] = dose: 50.0 mg/kg/injection, schedule: Q01DX009 (ip), vehicle: Klucel (hydroxypropylcellulose) (HPC)
[3] = dose: 100.0 mg/kg/injection, schedule: Q04DX003 (ip), vehicle: saline
[4] = dose: 50.0 mg/kg/injection, schedule: Q01DX009 (ip), vehicle: saline with Tween-80
[5] = dose: 100.0 mg/kg/injection, schedule: Q01DX009 (ip), vehicle: saline with Tween-80
[6] = dose: 200.0 mg/kg/injection, schedule: Q01DX009 (ip), vehicle: saline with Tween-80
[7] = dose: 100.0 mg/kg/injection, schedule: Q01DX001 (ip), vehicle: saline
[8] = dose: 200.0 mg/kg/injection, schedule: Q01DX001 (ip), vehicle: saline
[9] = dose: 400.0 mg/kg/injection, schedule: Q01DX001 (ip), vehicle: saline
[10] = dose: 100.0 mg/kg/injection, schedule: Q01DX009 (ip), vehicle: Klucel (hydroxypropylcellulose) (HPC)
[11] = dose: 100.0 mg/kg/injection, schedule: Q04DX003 (ip), vehicle: Klucel (hydroxypropylcellulose) (HPC)
[12] = dose: 200.0 mg/kg/injection, schedule: Q01DX009 (ip), vehicle: Klucel (hydroxypropylcellulose) (HPC)
[13] = dose: 200.0 mg/kg/injection, schedule: Q04DX003 (ip), vehicle: Klucel (hydroxypropylcellulose) (HPC)
[14] = dose: 100.0 mg/kg/injection, schedule: Q04DX003 (ip), vehicle: saline with Tween-80
[15] = dose: 200.0 mg/kg/injection, schedule: Q04DX003 (ip), vehicle: saline with Tween-80
[16] = dose: 400.0 mg/kg/injection, schedule: Q04DX003 (ip), vehicle: saline with Tween-80
[17] = dose: 400.0 mg/kg/injection, schedule: Q04DX003 (ip), vehicle: Klucel (hydroxypropylcellulose) (HPC)
[18] = dose: 50.0 mg/kg/injection, schedule: Q04DX003 (ip), vehicle: saline with Tween-80
[19] = dose: 50.0 mg/kg/injection, schedule: Q04DX003 (ip), vehicle: Klucel (hydroxypropylcellulose) (HPC)

Measured: T/C

COC(=O)C1C2CC3c4[nH]c5cc(OC)ccc5c4CCN3CC2CC(OC(=O)c2cc(OC)c(OC)c(OC)c2)C1OC (stereo unspecified)
inactive: dose: 6.25 mg/kg/injection, schedule: Q01DX009 (ip), vehicle: Klucel (hydroxypropylcellulose) (HPC) 94 % of control | dose: 12.5 mg/kg/injection, schedule: Q01DX009 (ip), vehicle: Klucel (hydroxypropylcellulose) (HPC) 96 % of control | [1] 105 % of control | dose: 25.0 mg/kg/injection, schedule: Q04DX003 (ip), vehicle: saline 106 % of control | [2] 113 % of control | dose: 50.0 mg/kg/injection, schedule: Q04DX003 (ip), vehicle: saline 119 % of control | [3] 111 % of control

CC1=C(OS(=O)(=O)c2ccc(C)cc2)CCCC1=O
inactive: [4] 100 % of control | [5] 100 % of control | [6] 88 % of control

Cc1csc[n+]1CCS(=O)(=O)[O-]
inactive: [7] 95 % of control | [8] 97 % of control | [9] 97 % of control

CNc1nnnn1Cc1ccccc1
inactive: [3] 105 % of control | dose: 200.0 mg/kg/injection, schedule: Q04DX003 (ip), vehicle: saline 94 % of control | dose: 400.0 mg/kg/injection, schedule: Q04DX003 (ip), vehicle: saline 97 % of control

COc1cc(C=Nc2ccc3c(c2)OCO3)ccc1OC(=O)c1ccccc1
inactive: dose: 100.0 mg/kg/injection, schedule: Q04DX002 (ip), vehicle: saline with Tween-80 96 % of control | dose: 200.0 mg/kg/injection, schedule: Q04DX002 (ip), vehicle: saline with Tween-80 100 % of control | dose: 400.0 mg/kg/injection, schedule: Q04DX002 (ip), vehicle: saline with Tween-80 93 % of control

Cc1c(Br)c(=O)n(-c2ccccc2)n1C
inactive: [2] 94 % of control | [10] 98 % of control | [11] 101 % of control | [12] 100 % of control | [13] 100 % of control

COC1OC2COC(c3ccccc3)OC2C(OS(=O)(=O)c2ccc(C)cc2)C1OS(=O)(=O)c1ccc(C)cc1 (stereo unspecified)
inactive: [5] 93 % of control | [14] 88 % of control | [6] 90 % of control | [15] 91 % of control | dose: 400.0 mg/kg/injection, schedule: Q01DX009 (ip), vehicle: saline with Tween-80 95 % of control

COc1ccc(OC)c(NC(=O)Nc2ccc(O)cc2)c1
inactive: [14] 98 % of control | [15] 98 % of control | [16] 93 % of control

CCSc1nc(C=O)c(Cc2ccccc2)c(=O)[nH]1
inactive: [11] 101 % of control | [13] 103 % of control | [17] 98 % of control

NC(CC(=O)N/C=N\O)C(=O)O (stereo unspecified)
inactive: dose: 50.0 mg/kg/injection, schedule: Q01DX001 (ip), vehicle: saline 98 % of control | [7] 102 % of control | [8] 104 % of control | [9] 104 % of control

CC(C)(C(Cl)Cl)S(=O)(=O)O (tested in a mixture with another compound)
inactive: dose: 9.0 mg/kg/injection, schedule: Q01DX001 (ip), vehicle: other 95 % of control | dose: 18.0 mg/kg/injection, schedule: Q01DX001 (ip), vehicle: other 106 % of control | dose: 37.0 mg/kg/injection, schedule: Q01DX001 (ip), vehicle: other 103 % of control | dose: 75.0 mg/kg/injection, schedule: Q01DX001 (ip), vehicle: other 98 % of control | dose: 75.0 mg/kg/injection, schedule: Q01DX009 (ip), vehicle: saline with Tween-80 107 % of control | dose: 75.0 mg/kg/injection, schedule: Q04DX003 (ip), vehicle: other 111 % of control | dose: 150.0 mg/kg/injection, schedule: Q01DX001 (ip), vehicle: other 101 % of control | dose: 150.0 mg/kg/injection, schedule: Q01DX009 (ip), vehicle: saline with Tween-80 105 % of control | dose: 150.0 mg/kg/injection, schedule: Q04DX003 (ip), vehicle: other 118 % of control | dose: 300.0 mg/kg/injection, schedule: Q01DX001 (ip), vehicle: other 113 % of control | dose: 300.0 mg/kg/injection, schedule: Q01DX009 (ip), vehicle: saline with Tween-80 102 % of control | dose: 300.0 mg/kg/injection, schedule: Q04DX003 (ip), vehicle: other 116 % of control

C#CC1(OCC2CO2)CCCCC1 (stereo unspecified)
inactive: dose: 50.0 mg/kg/injection, schedule: Q01DX009 (ip), vehicle: saline 97 % of control | [18] 100 % of control | dose: 100.0 mg/kg/injection, schedule: Q01DX009 (ip), vehicle: saline 117 % of control | [14] 101 % of control | dose: 200.0 mg/kg/injection, schedule: Q01DX009 (ip), vehicle: saline 101 % of control | [15] 103 % of control | dose: 400.0 mg/kg/injection, schedule: Q01DX009 (ip), vehicle: saline 94 % of control | [16] 100 % of control

COC(=O)CSC(=O)C(O)c1ccccc1 (stereo unspecified)
inactive: [11] 96 % of control | [13] 103 % of control | [17] 103 % of control

O=[N+]([O-])c1cccc(OCCBr)c1
inactive: [7] 101 % of control | [8] 107 % of control | [9] 103 % of control

O=C(CC(=O)c1ccccc1)Nc1ccc([N+](=O)[O-])cn1
inactive: [19] 91 % of control | dose: 100.0 mg/kg/injection, schedule: Q01DX001 (ip), vehicle: Klucel (hydroxypropylcellulose) (HPC) 103 % of control | dose: 200.0 mg/kg/injection, schedule: Q01DX001 (ip), vehicle: Klucel (hydroxypropylcellulose) (HPC) 105 % of control | [13] 93 % of control | dose: 400.0 mg/kg/injection, schedule: Q01DX001 (ip), vehicle: Klucel (hydroxypropylcellulose) (HPC) 98 % of control

CCOC(=O)NNc1ccccc1
inactive: [7] 102 % of control | [8] 97 % of control

C=CCCCCCCCCC(=O)NCCCN1CCOCC1
inactive: [4] 103 % of control | [5] 103 % of control

C/C(=N/N=C(/C)c1ccccc1)c1ccccc1
inactive: [19] 110 % of control | [10] 96 % of control | [11] 94 % of control | [12] 100 % of control | [13] 103 % of control | dose: 400.0 mg/kg/injection, schedule: Q01DX009 (ip), vehicle: Klucel (hydroxypropylcellulose) (HPC) 96 % of control | [17] 97 % of control

Cn1nc(C(=O)O)c(=O)[nH]c1=S
inactive: dose: 100.0 mg/kg/injection, schedule: Q01DX Z (ip), vehicle: methylcellulose (MC) 97 % of control | dose: 200.0 mg/kg/injection, schedule: Q01DX Z (ip), vehicle: methylcellulose (MC) 92 % of control

N/C(=N\Cl)C(Cl)(Cl)Cl
inactive: dose: 12.5 mg/kg/injection, schedule: Q04DX003 (ip), vehicle: saline with Tween-80 103 % of control | dose: 25.0 mg/kg/injection, schedule: Q04DX003 (ip), vehicle: saline with Tween-80 103 % of control | [18] 103 % of control

C[N+](C)(C)c1ccc(/C=N\O)cc1
inactive: dose: 6.25 mg/kg/injection, schedule: Q04DX003 (ip), vehicle: saline 95 % of control | dose: 12.5 mg/kg/injection, schedule: Q04DX003 (ip), vehicle: saline 102 % of control

Cc1cc2nc(N)sc2cc1C
inactive: [1] 101 % of control | [19] 100 % of control | [11] 89 % of control
